Data reported in PubChem BioAssay AID2060343 (Molecular Pharmacology Branch, DTP, NCI, 2025).

Tested on: 138582-337-R-J1-PDC spheroids with HUVEC/MSC, viability
Experiment: Anticancer human tumor 138582-337-R-J1-PDC patient-derived Merkel cell tumor cell line growth inhibition [IpAb]
Details: for IC50: curve of first compound; for viability, T/C: stronger effect = lower value; active means viability on the fitted dose curve at most 10% of control; inactive means the rest
Source text: Combinatorial screen of targeted agents with ipatasertib and abemaciclib in multi-cell type tumor spheroids
A high-throughput screen of multi-cell type tumor spheroids was designed to identify active combinations of targeted small molecules and ipatasertib or abemaciclib. Complex spheroids include a stromal component modeled by human endothelial cells (HUVEC) and fibroblasts modeled by human mesenchymal stem cells (MSCs). The concentration ranges selected for each drug and investigational agent were based upon clinically achievable concentrations if the clinical Cmax of the agent was known.
Compounds. The drugs and investigational agents: ipatasertib (NSC767898), abemaciclib(NSC768073), selumetinib (NSC741078), trametinib (758246), adavosertib (NSC754352), everolimus (NSC733504), sapanisertib (NSC764658), vemurafenib (NSC761431), venetoclax (NSC766270), copanlisib (NSC809693), apelisib (NSC765974), palbociblib (NSC758247), vemurafenib (NSC761431), dabrafenib (NSC764134), ravoxertinib (NSC781343), BMS-387032 (NSC767048), sotorasib (NSC818433), talazoparib (NSC767125) and afursertib (NSC778305), were obtained from the National Cancer Institute (NCI) Developmental Therapeutics Program Chemical Repository. The FDA-approved anticancer drug set is available from the NCI Developmental Therapeutics Program. […] The stock solutions were prepared in dimethyl sulfoxide (DMSO, Sigma-Aldrich, St. Louis, MO, cat. D2650) at 800-fold the tested concentration and stored at -70 degrees C prior to their use. All drugs and investigational agents were tested over a range starting from a high concentration at or near the clinical Cmax and decreasing in half-log increments. If the clinical Cmax for an agent had not been determined, the highest concentration tested was 10 microM.
NCI60 Cell Culture. NCI60 cell lines were obtained from the NCI Developmental Therapeutics Program Tumor Repository. For each lot of cells, the Repository performed Applied Biosystems AmpFLSTR Identifiler testing with PCR amplification to confirm consistency with the published Identifier STR profile for each cell line. Cells were kept in continuous culture for no more than 20 passages. The optimal seeding densities for each of the cell lines at each time point assessed were determined prior to performing the concentration response studies. Briefly, the NCI60 human tumor lines were grown as monolayers in RPMI 1640 medium supplemented with 10% FBS and 2 mmol/L L-glutamine.
An additional 9 lines were from the NCI60 cell line panel including MDA-MB-231 breast carcinoma, MDA-MB-468 breast carcinoma, MCF7 breast carcinoma, Hs578T breast carcinoma, MALME-3M melanoma, SK-MEL-2 melanoma, SK-OV-3 ovarian carcinoma, DU-145 prostate carcinoma, PC-3 prostate carcinoma, all cell lines along with major genetic alterations are listed on Table 2. Pooled donor human umbilical vein endothelial cells (HUVEC, Lonza, cat. CC-2519) and human mesenchymal stem cells (hMSC, Lonza, cat. PT-2501) were purchased from Lonza (Walkersville, MD).
PDMR cell lines were grown in complete medium (DC medium): Dulbecco's modified Eagle's medium (DMEM)/F12 supplemented with 5% fetal bovine serum (FBS), 2 mM L-glutamine, 100 U/mL penicillin and 100 µg/ml streptomycin, 0.4 µg/ml hydrocortisone, 10 ng/ml epidermal growth factor (EGF) recombinant human protein, 24 µg/mL adenine, and 0.1 mg/mL primocin. During culture from frozen stock vials, PDMR cells were cultured in the same medium containing 10 µM Y-27632 (see Table 3). The PDCs were cultured in complete DMEM/F12 media without 10 microM Y-27632 dihydrochloride for at least two passages prior to the screen. The pooled donor HUVEC and hMSC were cultured in endothelial cell growth medium 2 (PromoCell, Heidelberg, Germany, cat. C-22011) and mesenchymal stem cell growth medium 2 (PromoCell, cat. C-28009), respectively. For all experiments, HUVEC and hMSC were used at passages </=5.
[…]

[1] = second compound 0.1 µM, first compound 0.0316 µM
[2] = second compound 0.1 µM, first compound 0.1 µM
[3] = second compound 0.1 µM, first compound 0.316 µM
[4] = second compound 0.1 µM, first compound 1 µM
[5] = second compound 0.1 µM, first compound 3.16 µM
[6] = second compound 0.1 µM, first compound 10 µM
[7] = second compound 0.316 µM, first compound 0.0316 µM
[8] = second compound 0.316 µM, first compound 0.1 µM
[9] = second compound 0.316 µM, first compound 0.316 µM
[10] = second compound 0.316 µM, first compound 1 µM
[11] = second compound 0.316 µM, first compound 3.16 µM
[12] = second compound 0.316 µM, first compound 10 µM
[13] = second compound 1 µM, first compound 0.0316 µM
[14] = second compound 1 µM, first compound 0.1 µM
[15] = second compound 1 µM, first compound 0.316 µM
[16] = second compound 1 µM, first compound 1 µM
[17] = second compound 1 µM, first compound 3.16 µM
[18] = second compound 1 µM, first compound 10 µM
[19] = second compound 3.16 µM, first compound 0.0316 µM
[20] = second compound 3.16 µM, first compound 0.1 µM
[21] = second compound 3.16 µM, first compound 0.316 µM
[22] = second compound 3.16 µM, first compound 1 µM
[23] = second compound 3.16 µM, first compound 3.16 µM
[24] = second compound 3.16 µM, first compound 10 µM
[25] = second compound 10 µM, first compound 0.0316 µM
[26] = second compound 10 µM, first compound 0.1 µM
[27] = second compound 10 µM, first compound 0.316 µM
[28] = second compound 10 µM, first compound 1 µM
[29] = second compound 10 µM, first compound 3.16 µM
[30] = second compound 10 µM, first compound 10 µM
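Further: spheroids exposed to compounds for seven days.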

Cn1nccc1Nc1nccc(-c2ccn(C(CO)c3ccc(Cl)c(F)c3)c(=O)c2)n1 (stereo not given) + CC(C)NCC(C(=O)N1CCN(c2ncnc3c2C(C)CC3O)CC1)c1ccc(Cl)cc1
> 10000 nM: IC50 (second compound 0.1 µM) | IC50 (second compound 0.316 µM)
1700 nM: IC50 (second compound 1 µM)
active: viability, T/C [24] 4.47% | viability, T/C [29] 6.51% | viability, T/C [30] 1.06%
< 31.6 nM: IC50 (second compound 10 µM)
inactive: viability, T/C [1] 104% | viability, T/C [2] 88.8% | viability, T/C [3] 91.8% | viability, T/C [4] 100% | viability, T/C [5] 108% | viability, T/C [6] 124% | viability, T/C [7] 82.8% | viability, T/C [8] 82.8% | viability, T/C [9] 77% | viability, T/C [10] 73.5% | viability, T/C [11] 75.8% | viability, T/C [12] 70% | viability, T/C [13] 68.2% | viability, T/C [14] 70.5% | viability, T/C [15] 67.6% | viability, T/C [16] 51.4% | viability, T/C [17] 44.8% | viability, T/C [18] 17.1% | viability, T/C [19] 47.4% | viability, T/C [20] 55.1% | viability, T/C [21] 48.8% | viability, T/C [22] 38.8% | viability, T/C [23] 19.9% | viability, T/C [25] 45.9% | viability, T/C [26] 47.5% | viability, T/C [27] 34.2% | viability, T/C [28] 22.8%
158 nM: IC50 (second compound 3.16 µM)

CC1(C)CCC(CN2CCN(c3ccc(C(=O)NS(=O)(=O)c4ccc(NCC5CCOCC5)c([N+](=O)[O-])c4)c(Oc4cnc5[nH]ccc5c4)c3)CC2)=C(c2ccc(Cl)cc2)C1 + CC(C)NCC(C(=O)N1CCN(c2ncnc3c2C(C)CC3O)CC1)c1ccc(Cl)cc1
> 10000 nM: IC50 (second compound 0.1 µM) | IC50 (second compound 0.316 µM) | IC50 (second compound 1 µM)
inactive: viability, T/C [1] 83.6% | viability, T/C [2] 73.6% | viability, T/C [3] 78.5% | viability, T/C [4] 75.1% | viability, T/C [5] 74.5% | viability, T/C [6] 76.6% | viability, T/C [7] 73% | viability, T/C [8] 69.8% | viability, T/C [9] 67% | viability, T/C [10] 71.4% | viability, T/C [11] 63.3% | viability, T/C [12] 71.2% | viability, T/C [13] 65.2% | viability, T/C [14] 63.5% | viability, T/C [15] 63.8% | viability, T/C [16] 60.9% | viability, T/C [17] 60.2% | viability, T/C [18] 63.8% | viability, T/C [19] 51.2% | viability, T/C [20] 50.7% | viability, T/C [21] 46.9% | viability, T/C [22] 50.3% | viability, T/C [23] 49.6% | viability, T/C [24] 32.3% | viability, T/C [25] 43.7% | viability, T/C [26] 41.7% | viability, T/C [27] 41.3% | viability, T/C [28] 38.3% | viability, T/C [29] 47.1% | viability, T/C [30] 11%
< 31.6 nM: IC50 (second compound 3.16 µM) | IC50 (second compound 10 µM)

Cn1ncnc1[C@H]1c2n[nH]c(=O)c3cc(F)cc(c23)N[C@@H]1c1ccc(F)cc1 + CC(C)NCC(C(=O)N1CCN(c2ncnc3c2C(C)CC3O)CC1)c1ccc(Cl)cc1
> 100 nM: IC50 (second compound 0.1 µM) | IC50 (second compound 0.316 µM) | IC50 (second compound 1 µM) | IC50 (second compound 3.16 µM)
inactive: viability, T/C (second compound 0.1 µM, first compound 0.000316 µM) 99.1% | viability, T/C (second compound 0.1 µM, first compound 0.001 µM) 83% | viability, T/C (second compound 0.1 µM, first compound 0.00316 µM) 89.1% | viability, T/C (second compound 0.1 µM, first compound 0.01 µM) 78.3% | viability, T/C [1] 78.6% | viability, T/C [2] 82.9% | viability, T/C (second compound 0.316 µM, first compound 0.000316 µM) 69.7% | viability, T/C (second compound 0.316 µM, first compound 0.001 µM) 81.8% | viability, T/C (second compound 0.316 µM, first compound 0.00316 µM) 64.5% | viability, T/C (second compound 0.316 µM, first compound 0.01 µM) 70.9% | viability, T/C [7] 72% | viability, T/C [8] 74% | viability, T/C (second compound 1 µM, first compound 0.000316 µM) 72.8% | viability, T/C (second compound 1 µM, first compound 0.001 µM) 64.2% | viability, T/C (second compound 1 µM, first compound 0.00316 µM) 68% | viability, T/C (second compound 1 µM, first compound 0.01 µM) 72.7% | viability, T/C [13] 74.2% | viability, T/C [14] 62% | viability, T/C (second compound 3.16 µM, first compound 0.000316 µM) 58.1% | viability, T/C (second compound 3.16 µM, first compound 0.001 µM) 67.6% | viability, T/C (second compound 3.16 µM, first compound 0.00316 µM) 59.2% | viability, T/C (second compound 3.16 µM, first compound 0.01 µM) 55.2% | viability, T/C [19] 51.3% | viability, T/C [20] 54.8% | viability, T/C (second compound 10 µM, first compound 0.000316 µM) 38.2% | viability, T/C (second compound 10 µM, first compound 0.001 µM) 46.7% | viability, T/C (second compound 10 µM, first compound 0.00316 µM) 42.4% | viability, T/C (second compound 10 µM, first compound 0.01 µM) 39.2% | viability, T/C [25] 38.9% | viability, T/C [26] 40.2%
< 0.316 nM: IC50 (second compound 10 µM)
